This note sets out measurements from ChEMBL document CHEMBL1138862 (J Med Chem, 2006).

Common to all, as to assay type: functional
Test [1] has as its system Escherichia coli. Description: Antibacterial activity against Escherichia coli pTMV19 in presence of mevalonate.
In test [2] the test system is Escherichia coli. In words: Antibacterial activity against Escherichia coli pTMV19.
For test [3], the system named is Escherichia coli. Description: Antibacterial activity against Escherichia coli W3110.

On to `CCCCCCCCC(O)(P(=O)(O)O)P(=O)(O)O`, for which the entries for the “inhibition zone (IZ)” value in the test on Escherichia coli [1], in the test on Escherichia coli [2] and in the test with Escherichia coli [3] were 0 mm, 7 mm and 9 mm, respectively.

As to `Cc1cccc(CC(O)(P(=O)(O)O)P(=O)(O)O)c1`, the “inhibition zone (IZ)” value with Escherichia coli [1], in the test with Escherichia coli [2] and with Escherichia coli [3] was 0 mm in each case.

Turning to `O=P(O)(O)C(O)(Cc1cccc(Cl)c1)P(=O)(O)O`, the figures for the “inhibition zone (IZ)” value with Escherichia coli [1], in the test on Escherichia coli [2] and in the test with Escherichia coli [3] were 0 mm, 11 mm and 8 mm, respectively.

`O=P(O)(O)C(O)(Cc1cccc(C(F)(F)F)c1)P(=O)(O)O`: the “inhibition zone (IZ)” value is on record as 0 mm in the test with Escherichia coli [1], 7 mm in the test on Escherichia coli [2] and 7 mm in the test with Escherichia coli [3].

For `CCn1c2ccccc2c2cc(NC(P(=O)(O)O)P(=O)(O)O)ccc21`, the “inhibition zone (IZ)” value in the test on Escherichia coli [1], in the test with Escherichia coli [2] and with Escherichia coli [3] was 0 mm each time.

Take `Cc1ccc(C)c(COc2ccc(C)nc2NC(P(=O)(O)O)P(=O)(O)O)c1`: the “inhibition zone (IZ)” value in the test on Escherichia coli [1], with Escherichia coli [2] and with Escherichia coli [3] was 0 mm in each case.

For `CCCCCCCCCCC(O)(P(=O)(O)O)P(=O)(O)O`, the “inhibition zone (IZ)” value in the test on Escherichia coli [1], with Escherichia coli [2] and in the test with Escherichia coli [3] was 0 mm in each case.

With `O=P(O)(O)C(O)(Cc1c[nH]cn1)P(=O)(O)O`, the “inhibition zone (IZ)” value in the test with Escherichia coli [1], with Escherichia coli [2] and with Escherichia coli [3] was 0 mm in each case.

With `CC(C)c1cccc(NC(P(=O)(O)O)P(=O)(O)O)c1`, the “inhibition zone (IZ)” value in the test with Escherichia coli [1] is recorded as 0 mm; in the test with Escherichia coli [2] it was 9 mm; in the test on Escherichia coli [3], 8 mm.

`O=P(O)(O)C(O)(Cc1cccc(Br)c1)P(=O)(O)O`: the “inhibition zone (IZ)” value was 0 mm in the test with Escherichia coli [1], 14 mm with Escherichia coli [2] and 12 mm in the test on Escherichia coli [3].

Take `Cc1ccnc(N(Cc2ccccc2)C(P(=O)(O)O)P(=O)(O)O)c1`: the “inhibition zone (IZ)” value with Escherichia coli [1], with Escherichia coli [2] and in the test with Escherichia coli [3] was 0 mm in each case.

Regarding `CCCCCCCCc1ccc(C(O)(P(=O)(O)O)P(=O)(O)O)cc1`, the “inhibition zone (IZ)” value with Escherichia coli [1], with Escherichia coli [2] and in the test on Escherichia coli [3] was 0 mm each time.

`CCCCCCCc1ccc(NC(P(=O)(O)O)P(=O)(O)O)cc1`: the “inhibition zone (IZ)” value with Escherichia coli [1], in the test on Escherichia coli [2] and with Escherichia coli [3] was 0 mm each time.

As to `Cc1cc(C)nc(NC(P(=O)(O)O)P(=O)(O)O)c1`, the “inhibition zone (IZ)” value in the test with Escherichia coli [1] is recorded as 0 mm; in the test on Escherichia coli [2], 7 mm; in the test on Escherichia coli [3] it was 11 mm.

For `CCCCCCCCCC(O)(P(=O)(O)O)P(=O)(O)O`, the “inhibition zone (IZ)” value in the test on Escherichia coli [1] is 0 mm; in the test with Escherichia coli [2] it was 0 mm; in the test on Escherichia coli [3], 9 mm.

For `O=P(O)(O)CC(c1ccccn1)P(=O)(O)O` (stereo not given), the “inhibition zone (IZ)” value with Escherichia coli [1], with Escherichia coli [2] and in the test on Escherichia coli [3] was 0 mm each time.

For `CCCCCCC(CCCC)C(O)(P(=O)(O)O)P(=O)(O)O` (stereo not given), the “inhibition zone (IZ)” value in the test on Escherichia coli [1], in the test with Escherichia coli [2] and in the test on Escherichia coli [3] was 0 mm each time.

Turning to `CCCCCCc1ccc(NC(P(=O)(O)O)P(=O)(O)O)cc1`, the “inhibition zone (IZ)” value in the test on Escherichia coli [1], in the test with Escherichia coli [2] and in the test with Escherichia coli [3] was 0 mm throughout.

Take `O=P(O)(O)C(Nc1cccc(-c2ccccc2)c1)P(=O)(O)O`: the figures for the “inhibition zone (IZ)” value with Escherichia coli [1], with Escherichia coli [2] and with Escherichia coli [3] were 0 mm, 8 mm and 8 mm, respectively.

On to `Cc1cccc(NC(P(=O)(O)O)P(=O)(O)O)n1`, for which the “inhibition zone (IZ)” value in the test with Escherichia coli [1] is listed as 8 mm; in the test on Escherichia coli [2], 10 mm; in the test on Escherichia coli [3], 7 mm.

Take `O=P(O)(O)C(Nc1cc(Cl)cc(Cl)c1)P(=O)(O)O` [(3,5-DICHLOROPHENYLAMINO)METHYLENEDIPHOSPHONIC ACID]: the entries for the “inhibition zone (IZ)” value with Escherichia coli [1], in the test with Escherichia coli [2] and with Escherichia coli [3] were 8 mm, 10 mm and 0 mm, respectively.

Regarding `O=P(O)(O)C(NC1CCCCC1)P(=O)(O)O` [(CYCLOHEXYLAMINO)METHYLENEDIPHOSPHONIC ACID], the “inhibition zone (IZ)” value in the test on Escherichia coli [1] was found to be 9 mm; in the test on Escherichia coli [2], 8 mm; in the test with Escherichia coli [3], 7 mm.

On to `O=P(O)(O)C(NC1CCCCCCC1)P(=O)(O)O` [(CYCLOOCTYLAMINO)METHYLENEDIPHOSPHONIC ACID], for which the “inhibition zone (IZ)” value with Escherichia coli [1] amounted to 0 mm; with Escherichia coli [2], 8 mm; with Escherichia coli [3], 7 mm.

Consider `O=C(N[C@H](CO)[C@H](O)c1ccc([N+](=O)[O-])cc1)C(Cl)Cl` [CHLORAMPHENICOL], for which the “inhibition zone (IZ)” value was 19 mm in the test on Escherichia coli [1], 20 mm in the test with Escherichia coli [2] and 24 mm in the test on Escherichia coli [3].

Turning to `NC[C@@H]1O[C@H](O[C@H]2[C@@H](O)[C@H](O[C@@H]3[C@@H](O)[C@H](N)C[C@H](N)[C@H]3O[C@H]3O[C@H](CN)[C@@H](O)[C@H](O)[C@H]3N)O[C@@H]2CO)[C@H](N)[C@@H](O)[C@@H]1O` [FRAMYCETIN], the “inhibition zone (IZ)” value in the test on Escherichia coli [1] came out at 12 mm; in the test with Escherichia coli [2], 18 mm; in the test on Escherichia coli [3], 15 mm.

In the case of `NC[C@H]1O[C@H](O[C@H]2[C@H](O)[C@@H](O[C@H]3O[C@H](CO)[C@@H](O)[C@H](N)[C@H]3O)[C@H](N)C[C@@H]2N)[C@H](O)[C@@H](O)[C@@H]1O` [KANAMYCIN], the “inhibition zone (IZ)” value in the test on Escherichia coli [1] came to 17 mm; in the test on Escherichia coli [2] it was 22 mm; with Escherichia coli [3] it was 21 mm.

On to `O=P(O)(O)C(N1CCCCCC1)P(=O)(O)O` [N-(HEXAMETHYLENEIMINO)METHYLENEBISPHOSPHONIC ACID], for which the “inhibition zone (IZ)” value with Escherichia coli [1], in the test with Escherichia coli [2] and in the test on Escherichia coli [3] was 0 mm each time.

Regarding `CO[C@@H]1[C@@H](OC(N)=O)[C@@H](O)[C@H](Oc2ccc3c(O)c(NC(=O)c4ccc(O)c(CC=C(C)C)c4)c(=O)oc3c2C)OC1(C)C` [NOVOBIOCIN], the “inhibition zone (IZ)” value in the test with Escherichia coli [1] was 15 mm; with Escherichia coli [2], 9 mm; in the test on Escherichia coli [3], 9 mm.

For `CN[C@@H]1[C@H](O[C@H]2[C@H](O[C@H]3[C@H](O)[C@@H](O)[C@H](N=C(N)N)[C@@H](O)[C@@H]3N=C(N)N)O[C@@H](C)[C@]2(O)C=O)O[C@@H](CO)[C@H](O)[C@H]1O` [STREPTOMYCIN], the “inhibition zone (IZ)” value amounted to 7 mm with Escherichia coli [1], 16 mm with Escherichia coli [2] and 15 mm with Escherichia coli [3].

With `CN(C)[C@@H]1C(O)=C(C(N)=O)C(=O)[C@@]2(O)C(O)=C3C(=O)c4c(O)cccc4[C@@](C)(O)[C@H]3C[C@@H]12` [TETRACYCLINE], the “inhibition zone (IZ)” value is reported as 22 mm in the test on Escherichia coli [1], 21 mm in the test with Escherichia coli [2] and 21 mm in the test on Escherichia coli [3].
